Test [1] concerns LPS-induced TNF-α production. Kind of test: Inhibition of LPS-induced TNF-α production in PMA-differentiated HL-60 cells (ELISA). It counts as cell-based. To be noted: Homo sapiens, read-out: IC50 TNF-α (50% inhibition of LPS-induced mediator production).
Test [2] has as its system LPS-induced PGE2 production. Kind of test: Inhibition of LPS-induced PGE2 production in PMA-differentiated HL-60 cells (ELISA). The note with it: Homo sapiens. It counts as cell-based.
In test [3] the test system is COX-2 mRNA. Kind of test: COX-2 expression assay (Quantikine mRNA) in LPS-stimulated HL-60 cells. The note with it: HL-60 cells + LPS.
The subject of test [4] is TNF-α. To be noted: Chan et al. 1995; Abe et al. 1999; cited from earlier work.
Test [5] relates to COX-2 expression. The note with it: Lee et al. 2002; IC50 values not reported; cited from earlier work.
Setting [6] is: Table 1, curcuminoids from fraction 5, HL-60 cells, LPS 1 μg/ml, 24 hrs.
Setting [7] is: Table 1, curcuminoids from fraction 5, HL-60 cells, LPS 1 μg/ml, 24 hrs, read-out: IC50 PGE2 (50% inhibition of LPS-induced mediator production).

Structures are written as SMILES. ≈ marks a conversion by molar mass, not a printed value. Like-named read-outs stand apart in the source and are kept apart here.

Regarding `O=C(/C=C/c1ccc(O)cc1)CC(=O)/C=C/c1ccc(O)cc1` (single isomer, unassigned) [Bisdemethoxycurcumin, bisdemethoxycurcumin], the IC50 in test [1] (setting [6]) turned out to be 24.6 µg/mL (≈ 79.8 µM); in test [2] (setting [7]), 1.2 µg/mL (≈ 3.89 µM).
As to `COc1cc(/C=C/C(=O)CC(=O)/C=C/c2ccc(O)c(OC)c2)ccc1O` (single isomer, unassigned) [Curcumin, curcumin], the IC50 in test [1] (setting [6]) was found to be 28.8 µg/mL (≈ 78.2 µM); in test [2] (setting [7]), 0.45 µg/mL (≈ 1.22 µM). In test [3] (0.5 μg/mL, 24 hrs, relative to LPS alone = 100%), the “inhibition (decrease) of COX-2 expression” value is reported as “greater than 50%”. For the same molecule, in test [3] (1.0 μg/ml, 24 hrs, relative to LPS alone = 100%), the “inhibition of COX-2 expression” value is “greater than 50%”. In addition, the “effect on COX-2 expression / COX-2 mRNA levels” value in test [3] (concentration not given, result in words) is “inhibited COX-2 expression”. The “concentration producing 50% decrease in production of TNF-α” value in test [4] is 2 to 10 µg/mL.
On to `COc1cc(/C=C/C(O)=C/C(=O)/C=C/c2ccc(O)cc2)ccc1O` (single isomer, unassigned) [Demethoxycurcumin, demethoxycurcumin], for which the IC50 in test [1] (HL-60, 24 h) was found to be 24.7 µg/mL (≈ 73 µM); in test [2] (HL-60, 24 h, read-out: IC50 PGE2 (50% inhibition of LPS-induced mediator production)), 2.6 µg/mL (≈ 7.68 µM).
On to `COc1ccc2c(c1)c(CC(=O)O)c(C)n2C(=O)c1ccc(Cl)cc1` [indomethacin], for which the IC50 in test [2] (HL-60 cells, LPS 1 μg/ml, 24 hrs, read-out: IC50 for LPS-induced PGE2 production) stood at 0.052 µg/mL (≈ 0.145 µM).
As for `CC(C)=CCC[C@@H](C)c1ccc(C)c(O)c1` [xanthorrhizol], the “concentrations showing inhibition of COX-2 expression” value in test [5] is 5 to 10 µg/mL.

The values are drawn from patent publication US7205011B2, “Anti-inflammatory activity of a specific turmeric extract” (Board of Regents, Acting for and on behalf of, University …, priority 2003, dated 2007).
